# Patent publication US20100286073A1, “COMPOUNDS AND METHODS FOR PHARMACEUTICAL USE” (priority 2007, published 2010)
# Entries after “also recorded” stand apart in the source; their conditions may differ.
# How the values were obtained:
# [1] = system: human subjects diagnosed with fibromyalgia syndrome; assay: Patient history of prior treatment of the fibromyalgia subjects (Examples 1-3); conditions: for pain relief by prior OTC analgesics: codeine at low dose; for side effects of prior prescription analgesics / pain relief by prior prescription analgesics: codeine at high dose; for pain relief by prior prescription analgesics: at best
# Source text: (§1) Patient History of Prior Treatment: A patient history was taken. Prior treatments targeting pain relief were as follows.
# Prior treatments targeting other symptoms included the following. The subject had taken tegaserod for irritable bowel syndrome. Additional prior therapies included sertraline for depression, and zolpidem for insomnia. The subject has also taken proclorperazine for dizziness.
# Prior treatments targeting other symptoms included the following. The subject had taken tegaserod for irritable bowel syndrome. Additional prior therapies included sertraline for depression, and zolpidem for insomnia.
# as §1
# Prior treatments targeting other symptoms included the following. The subject had taken tegaserod for irritable bowel syndrome. Additional prior therapies included zolpidem, midazolam, zopiclone, and chlorpheniramine for insomnia.
# [2] = system: human subjects diagnosed with fibromyalgia syndrome; assay: Treatment of human subjects diagnosed with fibromyalgia with trimetazidine (Examples 1-4, clinical case reports); format: in vivo
# Experimental: A person presented with long-standing complaints (15 years) of widespread pain—headaches, upper and lower back pain, neck pain, elbow and knee pain bilaterally, calf pain bilaterally and jaw pain. General non-specific symptoms were fatigue, symptoms of irritable bowel syndrome (constipation-type), insomnia, cognitive and memory impairment, morning stiffness, dizziness, irritability and depression.
# Treatment Regime: The subject was administered trimetazidine (modified release formulation, Vastarel® MR), 35 mg orally, twice daily, originally for treatment of their cardiac condition.
# Treatment Regime: The subject was administered trimetazidine (modified release formulation, Vastarel® MR), 35 mg orally, twice daily.
# The following is a synopsis of the clinical response of each of eight (8) patients diagnosed with FMS, each of whom received treatment with trimetazidine MR (Vastarel® MR), 35 mg orally, twice daily, for a period of at least four (4) weeks.
# [3] = biological target: long-chain isoform of 3-ketoacyl coenzyme A thiolase (3KCT) (Homo sapiens, UniProt P55084); conditions: thereby reducing fatty acid oxidation; Kantor et al., Circ Res 2000; cited from earlier work
# Chain of long-chain isoform of 3-ketoacyl coenzyme A thiolase (3KCT) (P55084 34-474): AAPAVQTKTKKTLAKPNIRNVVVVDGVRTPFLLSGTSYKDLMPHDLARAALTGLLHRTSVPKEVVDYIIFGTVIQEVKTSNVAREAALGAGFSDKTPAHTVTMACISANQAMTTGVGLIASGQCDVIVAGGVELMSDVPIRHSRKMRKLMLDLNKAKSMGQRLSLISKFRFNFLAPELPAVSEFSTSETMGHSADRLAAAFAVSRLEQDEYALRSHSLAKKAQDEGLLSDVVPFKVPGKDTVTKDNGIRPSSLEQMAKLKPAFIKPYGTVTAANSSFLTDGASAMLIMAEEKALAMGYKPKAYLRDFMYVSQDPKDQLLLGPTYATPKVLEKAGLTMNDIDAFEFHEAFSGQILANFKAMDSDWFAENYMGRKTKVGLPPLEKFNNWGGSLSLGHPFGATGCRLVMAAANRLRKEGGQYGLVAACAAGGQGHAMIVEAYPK
# Chain of long-chain isoform of 3-ketoacyl coenzyme A thiolase (3KCT) (P40939 37-763 partner): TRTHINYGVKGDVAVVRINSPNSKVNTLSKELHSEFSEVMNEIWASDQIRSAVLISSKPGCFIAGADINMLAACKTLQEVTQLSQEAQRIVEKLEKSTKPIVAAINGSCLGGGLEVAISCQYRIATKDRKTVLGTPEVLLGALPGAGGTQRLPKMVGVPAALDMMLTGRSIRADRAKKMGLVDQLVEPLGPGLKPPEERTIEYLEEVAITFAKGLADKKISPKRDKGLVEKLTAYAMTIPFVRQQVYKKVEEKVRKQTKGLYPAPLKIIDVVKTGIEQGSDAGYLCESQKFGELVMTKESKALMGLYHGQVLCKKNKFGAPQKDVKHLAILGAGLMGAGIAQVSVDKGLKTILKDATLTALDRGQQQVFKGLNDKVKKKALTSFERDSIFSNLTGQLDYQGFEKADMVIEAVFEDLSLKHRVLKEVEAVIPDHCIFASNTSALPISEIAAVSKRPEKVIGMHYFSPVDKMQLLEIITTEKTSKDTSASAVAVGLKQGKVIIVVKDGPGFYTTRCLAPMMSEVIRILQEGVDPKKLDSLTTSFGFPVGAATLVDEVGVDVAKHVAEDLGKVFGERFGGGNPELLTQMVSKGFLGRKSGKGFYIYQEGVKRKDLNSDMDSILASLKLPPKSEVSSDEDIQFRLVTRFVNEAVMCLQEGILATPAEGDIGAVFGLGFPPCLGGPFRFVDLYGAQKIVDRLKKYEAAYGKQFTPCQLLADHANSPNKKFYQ
# [4] = Examples 1-2, within 72 h (Ex. 1) or 24 h (Ex. 2) of starting 35 mg orally twice daily, patient-reported
# [5] = Examples 1-3, within 72 h (Ex. 1) or 24 h (Ex. 2, 3) of starting 35 mg orally twice daily, patient-reported
# [6] = Short Term i.e. within 72 hours, trimetazidine MR 35 mg orally twice daily, FMS patient, Example 4
# [7] = Short Term i.e. within 72 hours, trimetazidine MR 35 mg orally twice daily, FMS patients, Example 4
# [8] = after four (4) months of continuous use, 35 mg orally twice daily
# [9] = examination after at least four weeks of trimetazidine MR 35 mg orally twice daily
# [10] = examination after four weeks of trimetazidine MR 35 mg orally twice daily
smiles,measurement,setting,value
COc1ccc2c3c1O[C@H]1[C@@H](O)C=C[C@H]4[C@@H](C2)N(C)CC[C@@]341 [codeine],pain relief by prior OTC analgesics,[1],no pain relief whatsoever; also recorded: negligible pain relief
same,side effects of prior prescription analgesics,[1],frequently accompanied by unpleasant side effects
same,pain relief by prior prescription analgesics,[1],mild to moderate and very temporary relief
CCN(CC)CC(=O)Nc1c(C)cccc1C [lidocaine],localized pain relief by prior trigger point injections,"[1]; injections repeated at 2 to 4 week intervals, extremely painful procedures",best localized pain relief
CCOC(=O)C1(c2ccccc2)CCN(C)CC1 [meperidine],side effects of prior prescription analgesics,[1],frequently accompanied by unpleasant side effects
same,pain relief by prior prescription analgesics,[1],mild to moderate and very temporary relief
CC(=O)Nc1ccc(O)cc1 [paracetamol],pain relief by prior OTC analgesics,[1],no pain relief whatsoever; also recorded: negligible pain relief
COc1cccc(C2(O)CCCCC2CN(C)C)c1 (centres unmarked) [tramadol],side effects of prior prescription analgesics,[1],frequently accompanied by unpleasant side effects
same,pain relief by prior prescription analgesics,[1],mild to moderate and very temporary relief
"COc1ccc(CN2CCNCC2)c(OC)c1OC [trimetazidine, 1-(2,3,4-trimethyloxybenzyl)piperazine]",time after commencing therapy at which benefits were first noticed,"[2]; Example 1, 35 mg orally twice daily",≤ 24 h
same,level of irritability,"[2]; Example 1, within 72 hours of starting 35 mg orally twice daily, patient-reported",markedly reduced
same,clarity of thoughts,[2]; [4],markedly increased
same,short and long term memory,[2]; [4],improvement
same,energy levels,[2]; [5],very significantly increased
same,mood,[2]; [5],very improved
same,regularity of bowel habits,[2]; [5],markedly improved
same,sleep patterns,[2]; [5],very significantly improved
same,residual pain after reduction of widespread pain,"[2]; Examples 1-3, within 72 h (Ex. 1) or 24 h (Ex. 2, 3) of starting treatment",minimal residual pain reported at the left medial knee; also recorded: minimal residual pain reported at the left hip; also recorded: residual mild headache
same,sense of well-being,"[2]; Medium/Long Term, after five (5) or four (4) weeks of daily use",increased sense of
same,sustained improvement of all symptoms,"[2]; Medium/Long Term, after five (5) weeks of daily use, 35 mg orally twice daily, patient-reported",dramatic 95%
same,energy levels,"[2]; Medium/Long Term, after four (4) weeks of daily use",sustained increase
same,sustained improvement of symptoms,"[2]; Medium/Long Term, after nine (9) weeks of daily use, 35 mg orally twice daily, patient-reported",90% sustained
same,sustained improvement of symptoms,"[2]; Medium/Long Term, after seven (7) weeks of daily use, 35 mg orally twice daily, patient-reported",dramatic 95%
same,sustained improvement of symptoms,"[2]; Medium/Long Term, after six (6) weeks of daily use, 35 mg orally twice daily, patient-reported",(95%) sustained
same,Chest Pain,[2]; [6],Absence of Chest
same,Memory,[2]; [6],Improved Memory
same,Nausea,[2]; [6],Absence of Nausea
same,Nausea and Vomiting,[2]; [6],Absence of Nausea
same,nervousness,[2]; [6],No Nervousness
same,reduction in IBS and Acid Reflux Symptoms,[2]; [6],90% reduction in
same,reduction in irritability,[2]; [6],90% reduction in
same,reduction in severity of Pre-Menstrual Cramps,[2]; [6],70% reduction in
same,reduction in symptoms of Irritable Bowel Syndrome,[2]; [6],90% reduction in
same,symptoms of Irritable Bowel Syndrome,[2]; [6],Markedly reduced
same,alertness and clarity of thinking,[2]; [7],Increased alertness
same,dizziness/dizzy spells,[2]; [7],Infrequent dizzy; also recorded: Absence of
same,energy (feeling),[2]; [7],Energetic feeling
same,improved mood and concentration,[2]; [7],Significantly
same,improved mood and memory,[2]; [7],Significantly
same,reduction in widespread pain and trigger point pain,[2]; [7],90% reduction in
same,sleep,[2]; [7],Consistent restful
same,quality of life at follow-up,[2]; [8],same marked improvement
same,relapse of symptoms at follow-up,[2]; [8],no relapse
same,quality of life at follow-up,"[2]; after six (6) months of continuous use, 35 mg orally twice daily",same marked improvement
same,pain at trigger points at follow-up,"[2]; after six (6) months of continuous use, in reaction to stress or infections",infrequent episodes of pain
same,EXAMINATION FINDINGS: affect,[2]; [9],markedly improved
same,EXAMINATION FINDINGS: resolution of trigger point tenderness,[2]; [9],Sustained
same,EXAMINATION FINDINGS: affect and energy levels,[2]; [10],markedly improved
same,EXAMINATION FINDINGS: improvement in physical appearance,[2]; [10],obvious marked
same,EXAMINATION FINDINGS: improved energy levels,[2]; examination after ten weeks of trimetazidine MR 35 mg orally twice daily,Markedly
same,improvement in all symptoms and signs of fibromyalgia,"[2]; within 24 hours of starting treatment, 35 mg orally twice daily",vast improvement
same,reduction in widespread pain,"[2]; within 24 hours of starting treatment, trimetazidine MR 35 mg orally twice daily, FMS patient, patient-reported",95%
same,improvement in all symptoms and signs of fibromyalgia,"[2]; within 72 hours of starting treatment, 35 mg orally twice daily",vast improvement
same,reduction in widespread pain,"[2]; within 72 hours of starting treatment, trimetazidine MR (Vastarel MR) 35 mg orally twice daily, FMS patient, patient-reported",90%
same,reduction in widespread pain,"[2]; within 72 hours of starting treatment, trimetazidine MR (Vastarel MR) 35 mg orally twice daily, FMS patient, patient-reported, listed as Trimetazidine",90% reduction in
same,effect on long-chain 3-ketoacyl coenzyme A thiolase (3KCT),[3],inhibits
